Laboratory results taken from article PMC10974533, “Cationicity Enhancement on the Hydrophilic Face of Ctriporin Significantly Reduces Its Hemolytic Activity and Improves the Antimicrobial Activity against Antibiotic-Resistant ESKAPE Pathogens” (Toxins, 2024).
Where a SMILES comes first, the peptide text is derived from it.

Experiments:
P. aeruginosa 9014 = assay: MIC, broth dilution, clinical isolate; format: cell-based; conditions: CRE/MDR clinical isolate
Experimental: (§1) The standard strains, including S. aureus ATCC29213 and ATCC25923, E. faecalis ATCC29212, E. coli ATCC25922 and ATCC35218, A. baumannii ATCC19606, K. pneumoniae ATCC700603, and P. aeruginosa ATCC27853, were purchased from the China Center of Type Culture Collection (CCTCC). The clinical strains of the ESKAPE pathogens were isolated from the affiliated hospitals of Hubei University of Medicine. All of them were stored at −80 °C before use. The drug sensitivities of the clinical strains were determined by the Kirby–Bauer test.
(§2) The MICs were determined using the broth dilution method according to the guidelines of the Clinical and Laboratory Standards Institute (CLSI), as described in the previous studies. Briefly, the bacterial cells were incubated in Mueller–Hinton broth (MHB, Oxoid, Basingstoke, UK) at 37 °C and 150 rpm to the mid-growth phase and diluted to achieve a final concentration of 5 × 10^5 colony-forming units per milliliter (CFU/mL). Then, the cells were mixed with each peptide in different concentrations (1, 2, 4, 8, 16, 32, and 64 μg/mL). […] All experiments were repeated at least three times.

A. baumannii 19462 = assay: MIC, broth dilution, clinical isolate; format: cell-based; conditions: CRE/MDR clinical isolate
Experimental: as §1, §2

E. coli 2678 = assay: MIC, broth dilution, clinical isolate; format: cell-based; conditions: ESBL clinical isolate
Experimental: as §1, §2

E. faecium 898 = assay: MIC, broth dilution, clinical isolate; format: cell-based; conditions: MDR clinical isolate
Experimental: as §1, §2

E. coli 2687 = assay: MIC, broth dilution, clinical isolate; format: cell-based; conditions: ESBL clinical isolate
Experimental: as §1, §2

A. baumannii 19295 = assay: MIC, broth dilution, clinical isolate; format: cell-based; conditions: CRE/MDR clinical isolate
Experimental: as §1, §2

S. epidermidis 6943 = assay: MIC, broth dilution, clinical isolate; format: cell-based; conditions: MRSE clinical isolate
Experimental: as §1, §2

S. aureus 891 = assay: MIC, broth dilution, clinical isolate; format: cell-based; conditions: MRSA clinical isolate
Experimental: as §1, §2

A. baumannii 19618 = assay: MIC, broth dilution, clinical isolate; format: cell-based; conditions: CRE/MDR clinical isolate
Experimental: as §1, §2

S. aureus 9124 = assay: MIC, broth dilution, clinical isolate; format: cell-based; conditions: MRSA clinical isolate
Experimental: as §1, §2

S. capitis 3255 = assay: MIC, broth dilution, clinical isolate; format: cell-based; conditions: MRSC clinical isolate
Experimental: as §1, §2

S. epidermidis 9092 = assay: MIC, broth dilution, clinical isolate; format: cell-based; conditions: MRSE clinical isolate
Experimental: as §1, §2

K. pneumoniae 9126 = assay: MIC, broth dilution, clinical isolate; format: cell-based; conditions: CRE clinical isolate
Experimental: as §1, §2

[1] = tested on: carbapenem-resistant (CRE) A. baumannii; conditions: cited from earlier work
From the text: A wealth of CαAMPs have been identified from the venom glands of various scorpion species. Among these peptides, the members of short cationic AMP family are a group of cationic α-helical peptides with 17 to 19 residues, including Ctriporin [17], Mucroporin [18], Imcroporin [19], Stigmurin [20], TsAP-1 and TsAP-2 [21], AamAP1 and AamAP2 [22], and BmKb1 and BmKb2 [23]. Some peptides from this family were reported to show antimicrobial activity against methicillin-resistant S. aureus. We identified Lausporin-2 from the venom of Liocheles au ...

[2] = tested on: human red blood cells (hRBC); assay: Hemolytic activity determination; format: cell-based; conditions: 256 μg/mL peptide, 2% (v/v) hRBC, 37 °C, 1 h, OD540, 1% Triton X-100 = 100%; average ± standard error of three independent experiments
Experimental: Figure 2 Hemolytic activities of Ctriporin and its analogs against human red blood cells (hRBC). Hemolytic activities of Ctriporin (solid circle), CM1 (open circle), CM2 (open square), CM3 (upward triangle), CM4 (downward triangle), CM5 (half solid circle), CM6 (half solid square), and CM7 (half solid triangle), were measured against 2% (v/v) human red blood cells. The peptide concentrations are 0, 2, 4, 8, 16, 32, 64, 128, 256, and 512 μg/mL. The cells treated with 1% Triton X-100 were treated as 100% hemolysis. All experiments were repeated three times, and the data shown are the average ± standard error.
The hemolytic activities of the peptides were determined against human red blood cells (hRBCs). As described, sodium citrate-anticoagulated hRBCs were washed three times with 0.9% sodium chloride and diluted to a final concentration of 4% (v/v). Then, an equal volume of hRBC solutions was mixed with an equal volume of each peptide in a series of concentrations (0, 2, 4, 8, 16, 32, 64, 128, 256, and 512 μg/mL). After co-incubation at 37 °C for 1 h, the degree of hemolysis of the peptides was determined by detecting the release of hemoglobin from the damaged hRBCs by measuring the optical density at 540 nm (OD540). hRBCs in 0.9% sodium chloride and 1% Triton X-100 were considered 0% and 100% hemolysis, respectively. The results shown are the average ± standard error of data derived from three independent experiments. The percent hemolysis was calculated according to the following equation [53, 54]:Hemolysis (%) = 100 × (Asample − Ablank)/(Apositive − Ablank)

[3] = broth dilution (CLSI), MHB, 5 × 10^5 CFU/mL, 37 °C, 16–20 h, OD630

CC[C@H](C)[C@H](NC(=O)[C@H](C)NC(=O)CNC(=O)[C@@H]1CCCN1C(=O)[C@@H](NC(=O)[C@H](CC(C)C)NC(=O)CNC(=O)[C@H](Cc1c[nH]c2ccccc12)NC(=O)[C@H](CC(C)C)NC(=O)[C@@H](N)Cc1ccccc1)[C@@H](C)CC)C(=O)N[C@@H](CO)C(=O)N[C@@H](C)C(=O)N[C@H](C(=O)N[C@H](C(=O)N[C@@H](CO)C(=O)N[C@@H](CC(C)C)C(=O)N[C@H](C(=O)N[C@@H](CCCCN)C(=O)N[C@@H](CCCCN)C(N)=O)[C@@H](C)CC)[C@@H](C)O)C(C)C [Ctriporin] (H-FLWGLIPGAISAVTSLIKK-NH2; N-terminus assumed)
MICs (P. aeruginosa 9014; [3]): > 64 µg/mL
MICs (P. aeruginosa 9014; value in parentheses): > 31.8 µM
MICs (A. baumannii 19462; [3]): 16 µg/mL
MICs (A. baumannii 19462; value in parentheses): 8.0 µM
MICs (E. coli 2678; [3]): 64 µg/mL
MICs (E. coli 2678; value in parentheses): 31.8 µM
MICs (E. faecium 898; [3]): 16 µg/mL
MICs (E. faecium 898; value in parentheses): 8.0 µM
MICs (E. coli 2687; [3]): > 64 µg/mL
MICs (E. coli 2687; value in parentheses): > 31.8 µM
MICs (A. baumannii 19295; [3]): 32 µg/mL
MICs (A. baumannii 19295; value in parentheses): 15.9 µM
MICs (S. epidermidis 6943; [3]): 8 µg/mL
MICs (S. epidermidis 6943; value in parentheses): 4.0 µM
MICs (S. aureus 891; [3]): 16 µg/mL
MICs (S. aureus 891; value in parentheses): 8.0 µM
MICs (A. baumannii 19618; [3]): 32 µg/mL
MICs (A. baumannii 19618; value in parentheses): 15.9 µM
MICs (S. aureus 9124; [3]): 8 µg/mL
MICs (S. aureus 9124; value in parentheses): 4.0 µM
MICs (S. capitis 3255; [3]): 8 µg/mL
MICs (S. capitis 3255; value in parentheses): 4.0 µM
MICs (S. epidermidis 9092; [3]): 8 µg/mL
MICs (S. epidermidis 9092; value in parentheses): 4.0 µM
MICs (K. pneumoniae 9126; [3]): > 64 µg/mL
MICs (K. pneumoniae 9126; value in parentheses): > 31.8 µM
antimicrobial activity against carbapenem-resistant (CRE) A. baumannii [1]: moderate antimicrobial activity
Hemolysis% at 256 μg/mL [2]: 90.6 ± 11.8%
